Laboratory results: article PMC6102691, “Identification of a novel ligand for the ATAD2 bromodomain with selectivity over BRD4 through a fragment growing approach” (Organic & Biomolecular Chemistry, 2018)

What was measured:
[1] = target: T1, GST-ATAD2 bromodomain / biotinylated acetylated histone H4 peptide (Homo sapiens, UniProt Q6PL18); experiment: ATAD2-histone displacement HTRF assay; format: binding; details: for IC50: HTRF format assay, highest concentration 1000 μM; for ATAD2 inhibition in HTRF, in words: highest concentration assayed 1000 μM; for ATAD2 LE: Ligand efficiency (LE) = 1.4(–log IC50)/N, N = number of non-hydrogen atoms, from HTRF IC50
T1 construct: 981-1108; made in house; host or cells: Escherichia coli BL21 (DE3) pLysS, plasmid pGEX-6P-1
T1 sequence (Q6PL18 981-1108): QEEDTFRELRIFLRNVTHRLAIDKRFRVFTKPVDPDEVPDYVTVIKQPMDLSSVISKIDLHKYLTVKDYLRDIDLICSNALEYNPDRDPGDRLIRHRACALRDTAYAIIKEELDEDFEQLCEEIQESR
Experimental: (§1) Surface plasmon resonance (SPR) was used to assess the direct binding of the fragments and provide Kd values for binding to both ATAD2 and BRD4. SPR can yield artefactual data where the concentration of a small-molecular analyte exceeds ∼250 μM, and accordingly, this was the highest concentration used in the assays.
1.1 Protein Purification.
The ATAD2 bromodomain 981-1108 was expressed with an N-terminal GST fusion from the pGEX-6P-1 plasmid. The plasmids were transformed into BL21 (DE3) pLysS Escherichia coli (Novagen) and then the cells grown in luria bertani (LB) media at 37 °C until an OD600 of 0.6 was reached. The temperature was reduced to 20 °C and expression induced using 0.2 mM Isopropyl β-D-1-thiogalactopyranoside (IPTG). The cells were harvested after overnight incubation and resuspended in buffer A (20 mM HEPES pH 7.4, 100 mM NaCl, 5 mM Dithiothreitol (DTT)). The cells were lysed by sonication and the lysate cleared by centrifugation (50,000 x g, 4 °C, 1 hr). The protein was passed over 5ml of glutathione Sepharose 4B resin (GE Healthcare) at 4 °C. The resin was then washed with buffer A and the protein eluted with buffer A supplemented with 10 mM glutathione. The protein was then applied to a Superdex 200 26/60 gel filtration column (GE Healthcare) equilibrated in buffer […]
1.2 Isothermal Titration Calorimetry.
ATAD2 was exchanged into ITC buffer (50 mM HEPES pH7.4, 200 mM NaCl, 1 mM DTT).
ITC measurements were carried out at 25°C on a Microcal ITC 200 (Malvern Instruments Ltd, Malvern, UK). Compound 11 at 40mM, 2% DMSO was titrated into ATAD2 prepared in the cell at 150 μM, 2% DMSO. Titrations began with an initial 0.5 μL injection followed by 19x 2 μL injections of compound, with 120s spacing between each injection, and stirred at 1000 rpm throughout the experiment. Data were then analysed using Origin 7.0 (OriginLab Corp., Burlington, NC, USA) and fit with the one-set-of-sites model.
1.3 ATAD2-Histone displacement HTRF assay.
Compounds (dissolved to 100 mM in DMSO) were dispensed into black 384 well assay plates […]
(§2) 12.5 μM using an Echo 550 (Labcyte). Each well was backfilled to a final volume of 200 nl (for the […]), resulting in final DMSO concentrations of 2 %. 5 μl of GST-ATAD2 was added to each well and incubated for 30mins resulting in a final concentration of 5 nM.
(§3) 5μl of biotinylated-histone H4 peptide (SGRG-K(Ac)-GG-K(Ac)-GLG-K(Ac)-GGA-K(Ac)- RHRKVGG-K(Biotin)) was then added to each well at a final concentration of 500nM. Both GST-ATAD2 and peptide were diluted in buffer B (50 mM Tris pH 7.5, […], 1 mM DTT, 100 μg/ml bovine serum albumin (BSA)). The plate was then incubated at room temperature for 30mins and then 5 μl LanthaScreen® Tb-anti-GST Antibody (Life Technologies) at final concentration of 5 nM was added to each well and incubated for an additional 30mins. 5 μl of streptavidin-XLL65 (Cisbio Assay) at a final concentration of […] was added to each assay well. Both dyes were diluted in buffer C (50 mM Tris pH 7.5, […], 100 μg/ml BSA). The plate was incubated at room temperature for a further 30mins and then read using a PheraStar FS (BMG Labtech). The data were analysed using Graphpad […]
(§4) 1.4 Surface Plasmon Resonance (SPR).
(§5) SPR-based ligand binding assays were performed using Biacore S200 (GE Healthcare) at 25 °C using single cycle affinity.
(§6) ATAD2N1064A was achieved using standard amine coupling on a CM5 chip surface. The surface was prepared through activation with EDC/NHS, followed by injection of 10 µg/ml of respective proteins until target level 8000 RU was reached. The surface was then quenched using 1 M Ethanolamine and washed with running buffer 10 mM HEPES, 150mM NaCl, 0.01% TWEEN20, 0.5 mM TCEP and 1% DMSO with a flow rate of […]. Compounds were injected in a dose-response manner (8 concentration points ranging from 0-200 µM) in series across the control, ATAD2, BRD4, and ATAD2-N1064A flow cells using solvent correction to account for bulk refractive index changes. The reference control channel was subtracted

[2] = target: T2, ATAD2 bromodomain (Homo sapiens, UniProt Q6PL18); experiment: Surface plasmon resonance (SPR) direct binding to ATAD2; details: for Kd: SPR format assay, Kd above the top concentration projected by extrapolation (extrapolated Rmax from control compound)
T2 construct: 981-1108; GST (N); made in house; host or cells: Escherichia coli BL21 (DE3) pLysS, plasmid pGEX-6P-1
T2 sequence (Q6PL18 981-1108): T1 sequence (Q6PL18 981-1108)
Experimental: as §1, §2, §3, §4, §5
as §6, with “subtracted […]” for “subtracted”
(§7) from immobilised channels and dose-response data was fitted using a steady state constant Rmax 1:1 binding model, using an extrapolated Rmax determined from a binding control compound in those cases where the extrapolated Kd value was greater than the top concentration used in the experiment (200 µM). K d values are reported to the nearest 100th of micromolar. 1 […]
(§8) Crystallisation was performed at 20 °C using the hanging drop vapor diffusion method.
(§9) Crystals of ATAD2 were grown by mixing 2µl ATAD2 at 7mg/ml and 2µl precipitant containing 0.1 M BIS-TRIS pH 6.5 and 2.0 M ammonium sulfate. Crystals were harvested in a diffusion solution containing 10 mM compound, 5% DMSO, 25 mM HEPES pH 7.5, 75 mM NaCl, 50 mM BIS-TRIS pH 6.5 and 1.0 M Ammonium Sulfate for 48hrs. Prior to data collection the crystals were cryo protected with the addition of 25% (v/v) ethylene glycol to the diffusion solution. X-ray diffraction data were recorded at Diamond Light Source (Harwell, Oxfordshire, UK). Data processing was carried out using XDS, POINTLESS/AIMLESS2 and other programs of the CCP4i suite3 run through the CCP4i2 gui. Structures were solved by molecular replacement using PHASER4 and pdb 3DAI as a starting model. REFMAC5 was employed for refinement, and model building was performed using COOT6. PDBs were deposited within the protein database www.pdb.org using accession codes: 11 XXXX, 15a […]

[3] = target: BRD4 (Homo sapiens, UniProt O60885); experiment: Surface plasmon resonance (SPR) direct binding to BRD4; details: for Kd: SPR format assay, Kd above the top concentration projected by extrapolation (extrapolated Rmax from control compound)
Experimental: Surface plasmon resonance (SPR) was used to assess the direct binding of the fragments and provide Kd values for binding to both ATAD2 and BRD4. SPR can yield artefactual data where the concentration of a small-molecular analyte exceeds ∼250 μM, and accordingly, this was the highest concentration used in the assays. Where the Kd exceeded this limit, projected Kds were determined by extrapolation, using the observed response units for compound binding (RU) relative to the molecular weight of a known control compound.[23]
as §2, §3, §4, §5
as §6, with “subtracted […]” for “subtracted”
as §7, §8, §9

Compound | IC50 [1] | ATAD2 inhibition in HTRF, in words [1] | ATAD2 LE [1] | Kd [2] | Kd [3] | selectivity between ATAD2 and BRD4, in words ([3]; SPR, BRD4 versus ATAD2) | binding constant towards ATAD2 relative to BRD4 (fold weaker) ([2]; SPR, ATAD2 Kd versus BRD4 Kd) | ATAD2 binding by SPR, in words ([2]; SPR) | BRD4 binding by SPR, in words ([3]; SPR)
CN1C(=O)C(C)(C)c2cc(=O)n(Cc3ccccc3)cc21 [Compound 17c] | 681 ± 120 µM | sub-millimolar ATAD2 IC50 values | 0.21 | > 200 µM | 101 µM | bound more tightly to BRD4 than to ATAD2 |  |  | 
CCN1C(=O)C(C)(C)c2cc(=O)n(C)cc21 [Compound 14a] | > 1000 µM | some inhibition was observed at the highest concentration assayed |  | > 200 µM | 12.7 µM |  | 100 fold |  | 
CN1C(=O)C(C)(C)c2cc(=O)n(Cc3ccc(Br)cc3)cc21 [Compound 17k] | 236 ± 36 µM |  | 0.23 | 138 µM | 48 µM |  |  |  | 
CN1C(=O)C(C)(Cc2ccccn2)c2cc(=O)n(Cc3ccc(Cl)cc3)cc21 (stereo not shown) [Compound 22b] | > 1000 µM |  |  | > 200 µM | > 200 µM |  |  |  | 
CN1C(=O)C(C)(CC(C)(C)C)c2cc(=O)n(Cc3ccc(Cl)cc3)cc21 (stereo not shown) [Compound 22d] | 489 ± 18 µM |  | 0.18 | 125 µM | > 2000 µM |  |  |  | 
CN1C(=O)C(C)(C)c2cc(=O)n(C)cc21 [Compound 17a] | > 1000 µM | some inhibition was observed at the highest concentration assayed |  | > 2000 µM | > 200 µM |  |  | bound too weakly to ATAD2 to allow Kd values to be calculated | detectable binding to BRD4
CN1C(=O)C(C)(C)c2cc(=O)n(Cc3ccc(C(N)=O)cc3)cc21 [Compound 17h] | 680 ± 66 µM |  | 0.18 | > 200 µM | > 200 µM |  |  |  | 
CCCn1cc2c(cc1=O)C(C)(C)C(=O)N2C [Compound 17b] | > 1000 µM |  |  | > 2000 µM | > 200 µM |  |  |  | 
CC1(C)C(=O)Nc2cn(Cc3ccccc3)c(=O)cc21 [Compound 15c] | > 1000 µM |  |  | > 200 µM | > 200 µM |  |  |  | 
CN1C(=O)C(C)(C)c2cc(=O)n(Cc3ccc(S(C)(=O)=O)cc3)cc21 [Compound 17i] | 359 ± 37 µM |  | 0.19 | > 200 µM | 200 µM |  |  |  | 
CN1C(=O)C(C)(CC2(C)COC2)c2cc(=O)n(Cc3ccc(Cl)cc3)cc21 (stereo not shown) [Compound 22e] | 214 µM |  | 0.19 | > 200 µM | > 2000 µM |  |  |  | 
Cn1cc2c(cc1=O)C(C)(C)C(=O)N2Cc1ccccc1 [Compound 14b] | 810 ± 57 µM | sub-millimolar HTRF IC50 values | 0.21 | > 2000 µM | > 200 µM |  |  |  | 
CN1C(=O)C(C)(C)c2cc(=O)n(Cc3ccccc3C#N)cc21 [Compound 17o] | > 1000 µM |  |  | > 2000 µM | > 200 µM |  |  |  | 
CN1C(=O)C(C)(C)c2cc(=O)n(Cc3ccccc3C(=O)O)cc21 [Compound 17q] | > 1000 µM |  |  | > 2000 µM | > 200 µM |  |  |  | 
Cn1cc2c(cc1=O)C(C)(C)C(=O)N2CCc1ccccc1 [Compound 14c] | 868 ± 33 µM | sub-millimolar HTRF IC50 values | 0.19 | > 200 µM | > 200 µM |  |  |  | 
CCC1(CC)C(=O)N(C)c2cn(Cc3ccc(Cl)cc3)c(=O)cc21 [Compound 18a] | 163 ± 23 µM |  | 0.22 | 107 µM | > 200 µM |  |  |  | 
CN1C(=O)C(C)(C)c2cc(=O)n(Cc3ccc(C(=O)O)cc3)cc21 [Compound 17f] | 533 ± 40 µM |  | 0.19 | > 200 µM | > 200 µM |  |  |  | 
